Measured values from patent publication US8076487B2, “Pyridone derivative and herbicide” (Kumiai Chemical Industry Co., Ltd., priority 2006, dated 2011).

Key:
Format in all cases: in vivo
[1] = tested on: Japanese bulrush (Scirpus juncoides Roxb.); assay: Test Example 1: herbicidal effect by soil application to paddy field; settings: paddy field soil application; active ingredient 1,000 g per 1 hectare; wettable powder added dropwise to water surface the day after sowing; examined on the 21st day after application
Method in brief: (§1)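 Under greenhouse conditions, seeds sown on puddled paddy soil in 100 cm2 pots under 3 cm of standing water received the test compound; injury was assessed with a standard scoring scheme three weeks (day 21) after treatment.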

[2] = tested on: heartshape false pickerelweed (Monochoria vaginalis (Burm.f.) C.Presl); assay: as above; settings: paddy field soil application; active ingredient 1,000 g per 1 hectare; wettable powder added dropwise to water surface the day after sowing; examined on the 21st day after application
Method in brief: as §1

[3] = tested on: early watergrass (Echinochloa oryzicola Vasing); assay: as above; settings: paddy field soil application; active ingredient 1,000 g per 1 hectare; wettable powder added dropwise to water surface the day after sowing; examined on the 21st day after application
Method in brief: as §1

[4] = tested on: slender amaranth (Amaranthus viridis L.); assay: Test Example 2: herbicidal effect by soil application to upland field; settings: soil surface spray, upland field soil, 1,000 g active ingredient per hectare, 21st day after application
Method in brief: (§2)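 A standard visual rating of herbicidal effect, made 21 days after treatment, gives the value. Treatment consisted of a uniform spray of water-diluted wettable powder on the soil covering newly sown seeds, equivalent to 1,000 g active ingredient and 1,000 liters per hectare.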

[5] = tested on: barnyardgrass (Echinochloa crus-galli (L.) P. Beauv. var. crus-galli); assay: as above; settings: soil surface spray, upland field soil, 1,000 g active ingredient per hectare, 21st day after application
Method in brief: as §2

[6] = tested on: green foxtail (Setaria viridis (L.) P. Beauv.); assay: as above; settings: soil surface spray, upland field soil, 1,000 g active ingredient per hectare, 21st day after application
Method in brief: as §2

[7] = tested on: velvetleaf (Abutilon theophrasti medicus); assay: as above; settings: soil surface spray, upland field soil, 1,000 g active ingredient per hectare, 21st day after application
Method in brief: as §2

[8] = tested on: slender amaranth (Amaranthus viridis L.); assay: Test Example 3: herbicidal effect by application to upland field (foliage treatment); settings: 14th day after application; for herbicidal effect, Slender Amaranth: foliage treatment, 1,000 g active ingredient per 1 hectare, greenhouse; for herbicidal effect (index), Slender Amaranth: foliage treatment, plants grown two weeks, 1,000 g active ingredient per hectare
Method in brief: (§3)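 Foliage treatment, greenhouse: 2-week-old plants in field soil; wettable powder in water sprayed over the top at 1,000 g a.i./ha (1,000 L/ha); rating on day 14 post-application.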

[9] = tested on: barnyardgrass (Echinochloa crus-galli (L.) P. Beauv. var. crus-galli); assay: as above; settings: 14th day after application; for herbicidal effect, Barnyardgrass: foliage treatment, 1,000 g active ingredient per 1 hectare, greenhouse; for herbicidal effect (index), Barnyardgrass: foliage treatment, plants grown two weeks, 1,000 g active ingredient per hectare
Method in brief: as §3

[10] = tested on: green foxtail (Setaria viridis (L.) P. Beauv.); assay: as above; settings: 14th day after application; for herbicidal effect, Green Foxtail: foliage treatment, 1,000 g active ingredient per 1 hectare, greenhouse; for herbicidal effect (index), Green Foxtail: foliage treatment, plants grown two weeks, 1,000 g active ingredient per hectare
Method in brief: as §3

[11] = tested on: velvetleaf (Abutilon theophrasti medicus); assay: as above; settings: 14th day after application; for herbicidal effect, Velvetleaf: foliage treatment, 1,000 g active ingredient per 1 hectare, greenhouse; for herbicidal effect (index), Velvetleaf: foliage treatment, plants grown two weeks, 1,000 g active ingredient per hectare
Method in brief: as §3

Structure (SMILES)	herbicidal effect, Scirpus juncoides Roxb. [1]	herbicidal effect, Monochoria vaginalis (Burm. f.) C. Presl [2]	herbicidal effect, Echinochloa oryzicola Vasing [3]	herbicidal effect (index), Slender Amaranth [4]	herbicidal effect (index), Barnyardgrass [5]	herbicidal effect (index), Green Foxtail [6]	herbicidal effect (index), Velvetleaf [7]	herbicidal effect, Slender Amaranth [8]	herbicidal effect, Barnyardgrass [9]	herbicidal effect, Green Foxtail [10]	herbicidal effect, Velvetleaf [11]	herbicidal effect (index), Slender Amaranth [8]	herbicidal effect (index), Barnyardgrass [9]	herbicidal effect (index), Green Foxtail [10]	herbicidal effect (index), Velvetleaf [11]
COCCCn1c(C(F)(F)F)ccc(C(=O)C2=C(O)C3CCC(C3)C2=O)c1=O (stereo not shown) [III-22]	5 (90% or more of herbicidal effect and crop phytotoxicity)	5 (90% or more of herbicidal effect and crop phytotoxicity)	5 (90% or more of herbicidal effect and crop phytotoxicity)	5 (90% or more of herbicidal effect and crop phytotoxicity)	5 (90% or more of herbicidal effect and crop phytotoxicity)	5 (90% or more of herbicidal effect and crop phytotoxicity)	5 (90% or more of herbicidal effect and crop phytotoxicity)	5 (90% or more of herbicidal effect and crop phytotoxicity)	5 (90% or more of herbicidal effect and crop phytotoxicity)	5 (90% or more of herbicidal effect and crop phytotoxicity)	5 (90% or more of herbicidal effect and crop phytotoxicity)				
Cc1nn(C)c(O)c1C(=O)c1ccc(C(F)(F)F)n(-c2cc(F)cc(F)c2)c1=O [IV-81]	3 (50 to less than 70% of herbicidal effect and crop phytotoxicity)	5 (90% or more of herbicidal effect and crop phytotoxicity)	5 (90% or more of herbicidal effect and crop phytotoxicity)	5 (90% or more of herbicidal effect and crop phytotoxicity)	5 (90% or more of herbicidal effect and crop phytotoxicity)	5 (90% or more of herbicidal effect and crop phytotoxicity)	5 (90% or more of herbicidal effect and crop phytotoxicity)	5 (90% or more of herbicidal effect and crop phytotoxicity)	4 (70 to less than 90% of herbicidal effect and crop phytotoxicity)	4 (70 to less than 90% of herbicidal effect and crop phytotoxicity)	5 (90% or more of herbicidal effect and crop phytotoxicity)				
CNn1c(C(F)(F)F)ccc(C(=O)c2cnn(C)c2O)c1=O [IV-146]	5 (90% or more of herbicidal effect and crop phytotoxicity)	5 (90% or more of herbicidal effect and crop phytotoxicity)	5 (90% or more of herbicidal effect and crop phytotoxicity)	5 (90% or more of herbicidal effect and crop phytotoxicity)	5 (90% or more of herbicidal effect and crop phytotoxicity)	5 (90% or more of herbicidal effect and crop phytotoxicity)	5 (90% or more of herbicidal effect and crop phytotoxicity)	5 (90% or more of herbicidal effect and crop phytotoxicity)	5 (90% or more of herbicidal effect and crop phytotoxicity)	5 (90% or more of herbicidal effect and crop phytotoxicity)	5 (90% or more of herbicidal effect and crop phytotoxicity)				
O=C1CCCC(O)=C1C(=O)c1ccc(C(F)(F)F)n(C2CCCC2)c1=O [I-18]	5 (90% or more of herbicidal effect and crop phytotoxicity)	5 (90% or more of herbicidal effect and crop phytotoxicity)	5 (90% or more of herbicidal effect and crop phytotoxicity)	5 (90% or more of herbicidal effect and crop phytotoxicity)	5 (90% or more of herbicidal effect and crop phytotoxicity)	5 (90% or more of herbicidal effect and crop phytotoxicity)	5 (90% or more of herbicidal effect and crop phytotoxicity)					5 (90% or more of herbicidal effect and crop phytotoxicity)	5 (90% or more of herbicidal effect and crop phytotoxicity)	5 (90% or more of herbicidal effect and crop phytotoxicity)	5 (90% or more of herbicidal effect and crop phytotoxicity)
Cn1c(C(F)(F)F)ccc(C(=O)C2=C(Sc3ccccc3)C3CCC(C3)C2=O)c1=O (stereo not shown) [III-14]	5 (90% or more of herbicidal effect and crop phytotoxicity)	5 (90% or more of herbicidal effect and crop phytotoxicity)	5 (90% or more of herbicidal effect and crop phytotoxicity)	5 (90% or more of herbicidal effect and crop phytotoxicity)	4 (70 to less than 90% of herbicidal effect and crop phytotoxicity)	4 (70 to less than 90% of herbicidal effect and crop phytotoxicity)	5 (90% or more of herbicidal effect and crop phytotoxicity)	5 (90% or more of herbicidal effect and crop phytotoxicity)	5 (90% or more of herbicidal effect and crop phytotoxicity)	5 (90% or more of herbicidal effect and crop phytotoxicity)	5 (90% or more of herbicidal effect and crop phytotoxicity)				
COCCn1c(C(F)(F)F)ccc(C(=O)C2=C(O)C(C)(C)CCC2=O)c1=O [II-29]	5 (90% or more of herbicidal effect and crop phytotoxicity)	5 (90% or more of herbicidal effect and crop phytotoxicity)	5 (90% or more of herbicidal effect and crop phytotoxicity)	5 (90% or more of herbicidal effect and crop phytotoxicity)	5 (90% or more of herbicidal effect and crop phytotoxicity)	5 (90% or more of herbicidal effect and crop phytotoxicity)	5 (90% or more of herbicidal effect and crop phytotoxicity)	5 (90% or more of herbicidal effect and crop phytotoxicity)	5 (90% or more of herbicidal effect and crop phytotoxicity)	5 (90% or more of herbicidal effect and crop phytotoxicity)	5 (90% or more of herbicidal effect and crop phytotoxicity)				
N#Cc1ccc(-n2c(C(F)(F)F)ccc(C(=O)C3=C(O)CCCC3=O)c2=O)cc1 [I-95]	5 (90% or more of herbicidal effect and crop phytotoxicity)	5 (90% or more of herbicidal effect and crop phytotoxicity)	5 (90% or more of herbicidal effect and crop phytotoxicity)	5 (90% or more of herbicidal effect and crop phytotoxicity)	5 (90% or more of herbicidal effect and crop phytotoxicity)	5 (90% or more of herbicidal effect and crop phytotoxicity)	5 (90% or more of herbicidal effect and crop phytotoxicity)					5 (90% or more of herbicidal effect and crop phytotoxicity)	5 (90% or more of herbicidal effect and crop phytotoxicity)	5 (90% or more of herbicidal effect and crop phytotoxicity)	5 (90% or more of herbicidal effect and crop phytotoxicity)
CCCn1c(C(F)(F)F)ccc(C(=O)C2=C(O)CCCC2=O)c1=O [I-3]	5 (90% or more of herbicidal effect and crop phytotoxicity)	5 (90% or more of herbicidal effect and crop phytotoxicity)	5 (90% or more of herbicidal effect and crop phytotoxicity)	5 (90% or more of herbicidal effect and crop phytotoxicity)	5 (90% or more of herbicidal effect and crop phytotoxicity)	5 (90% or more of herbicidal effect and crop phytotoxicity)	5 (90% or more of herbicidal effect and crop phytotoxicity)					5 (90% or more of herbicidal effect and crop phytotoxicity)	5 (90% or more of herbicidal effect and crop phytotoxicity)	5 (90% or more of herbicidal effect and crop phytotoxicity)	5 (90% or more of herbicidal effect and crop phytotoxicity)
